Data from patent US11484608B2, “Non-invasive assessment of hepatic mitochondrial metabolism by positional isotopomer NMR tracer analysis (PINTA)” (YALE UNIVERSITY, priority 2017, dated 2022).

Key:
[1] = test system: primary mouse hepatocytes; test: In vitro glucose production, VPC and lipolysis in isolated hepatocytes; format: cell-based; conditions: for glucagon-stimulated VPC flux / glucagon-stimulated glucose production: WT hepatocytes, 100 nM glucagon, 8 hr; for effect of glucagon to stimulate intrahepatic lipolysis: isolated hepatocytes
Protocol: For in vitro glucose production and lipolysis studies, primary mouse hepatocytes were isolated by the Yale Liver Center. Following removal of cell debris by Percoll density gradient centrifugation, cells were plated on 6-well collagen-I coated dishes (4.0×10^5 cells/well) in 2 ml recovery media (DMEM High Glucose containing 10% FBS, 2% penicillin-streptomycin, 100 nM dexamethasone, 1 nM insulin, and 10 mM HEPES). After incubation for 6 hr at 37° C. and 5% CO2, the attached cells were washed once in 1×PBS and then incubated overnight in 2 ml Low Glucose Culture Media (DMEM Low Glucose supplemented with 10% FBS, 2% penicillin-streptomycin and 10 mM HEPES for glucose production studies) or Serum Free Low Glucose Culture Media (DMEM Low Glucose supplemented with 0.5% fatty acid free BSA, 2% penicillin-streptomycin and 10 mM HEPES for lipolysis assays). […] After incubation for 8 hr at 37° C. and 5% CO2, cell culture media was collected for analysis of glucose, NEFA, and glycerol concentrations as described above. VPC was determined by measuring VPC/VEGP by PINTA as described above using 300 μL of the collected media, and multiplying this ratio by the measured glucose production rate. In a subset of studies, cells were incubated for 8 hr during the glucose production assay in media containing one of the following agents (all dissolved in 0.5% DMSO), or 0.5% DMSO vehicle: 20 μM ET-18-OCH3 (Santa Cruz), 100 μM U-73122 (Sigma), 30 nM thapsigargin (Sigma), 100 nM vasopressin (Sigma) 50 μM 2-APB (R&D Systems), 70 μM caffeine (Sigma), 1 mM malic enzyme inhibitor hydroxymalonate (Sigma). To inhibit PKA, hepatocytes were incubated in H-89 […] hydrate (Sigma, 25 μM) dissolved in media, or media lacking H-89 as a control. In the insulin treatment studies, hepatocytes were incubated in 1 nM insulin with 5% BSA and glucose production media for the duration of the glucose production assay. In the in vitro atglistatin study, hepatocytes were incubated in 10 μM atglistatin in 0.1% EtOH, or 0.1% EtOH vehicle. All values were normalized to total protein content determined from whole-cell lysates by a BCA protein assay (Thermo Fisher Scientific) according to the manufacturer's instructions and expressed as fold change verses vehicle-treated cells.

CPT-1 = target: T1, CPT-1 (Rattus norvegicus, UniProt P32198); test: CPT-1 inhibitor etomoxir in 0, 6, 16 and 48 hr fasted rats; format: in vivo
T1 construct: from tissue; host or cells: live rat, in vivo (intraperitoneal dosing); liver is the tissue discussed
T1 sequence (P32198 1-773): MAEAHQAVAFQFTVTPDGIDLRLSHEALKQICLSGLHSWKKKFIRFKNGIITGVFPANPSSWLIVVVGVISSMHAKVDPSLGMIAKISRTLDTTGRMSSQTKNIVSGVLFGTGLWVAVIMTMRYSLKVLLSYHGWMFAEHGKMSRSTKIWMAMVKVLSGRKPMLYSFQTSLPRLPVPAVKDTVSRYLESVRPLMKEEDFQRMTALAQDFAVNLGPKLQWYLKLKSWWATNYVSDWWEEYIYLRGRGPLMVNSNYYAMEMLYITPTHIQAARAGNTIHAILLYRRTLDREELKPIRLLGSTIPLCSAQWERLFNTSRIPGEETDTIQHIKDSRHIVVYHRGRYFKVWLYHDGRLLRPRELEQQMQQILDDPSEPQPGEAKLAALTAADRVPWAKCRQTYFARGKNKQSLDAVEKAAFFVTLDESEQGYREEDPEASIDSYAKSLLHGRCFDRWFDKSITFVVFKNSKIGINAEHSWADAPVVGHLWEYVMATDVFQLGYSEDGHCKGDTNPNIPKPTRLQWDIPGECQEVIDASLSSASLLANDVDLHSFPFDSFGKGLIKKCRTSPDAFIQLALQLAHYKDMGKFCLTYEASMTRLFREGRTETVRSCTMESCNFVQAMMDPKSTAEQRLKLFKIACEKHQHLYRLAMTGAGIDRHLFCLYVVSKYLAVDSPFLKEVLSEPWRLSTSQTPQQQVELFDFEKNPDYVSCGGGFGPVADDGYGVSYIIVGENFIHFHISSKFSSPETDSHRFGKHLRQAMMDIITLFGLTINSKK
Protocol: (§1) 8, 16, and 48 hr fasted rats were injected with a small molecule inhibitor of glycogen phosphorylase, 1-(3-(3-(2-Chloro-4,5-difluorobenzoyl) ureido)-4-methoxyphenyl)-3-methylurea (Sigma #361515; 5 mg/kg IV) and a tracer infusion of [2,3,3,3-^2H4]alanine ([…]prime for 5 min and […] continuous) and [3-^3H]glucose (0.3 μCi/min prime for 5 min and 0.3 μCi/min continuous) as well as [^13C4] β-hydroxybutyrate, [1,1,2,3,3-^2H5]glycerol, and [^13C16]palmitate at the rates listed in Table 9, for 120 min. Blood samples were obtained before (time zero) and 120 min after treatment with the glycogen phosphorylase inhibitor for measurement of turnover rates and plasma hormone/substrate concentrations. Hepatic acetyl-CoA content was altered by treatment with a CPT-1 inhibitor (etomoxir, 8 mg/kg) or an ATGL inhibitor (atglistatin, […]) in 0, 6, 16, and 48 hr fasted rats. Both agents were solubilized by suspending the drug in 4% ethanol/96% normal saline, heating to 60° C., and sonicating, and were cooled to room temperature before they were injected intraperitoneally. […] In these animals plasma glucose concentrations were measured every 15 minutes and a variable infusion of 20% glucose (Pfizer Hospira, Lake Forest, Ill.) was used to maintain plasma glucose concentrations ˜3.6-3.7 mM. The physiologic role of glucocorticoids was assessed in 6 and 48 hr fasted rats by treatment with a glucocorticoid receptor antagonist, mifepristone. Following a 2 hr tracer infusion at the rates described above to assess fatty acid, glycerol, glucose, and β-hydroxybutyrate turnover, rats were injected with mifepristone (40 mg/kg) IV. The tracer infusion was continued and the tracer of each of the above substrates was again measured 2 hr after treatment with mifepristone.
(§2) All whole-body substrate turnover rates were calculated using the equation Turnover=([Tracer APE/Plasma APE]−1)*Infusion rate, where APE designates the atom percent enrichment measured by mass spectrometry as described below (Biochemical Analysis). All chemicals used for flux analysis were obtained from SIGMA. Turnover of glucose, glycerol, and β-hydroxybutyrate were determined by gas chromatography-mass spectrometry (GC-MS). Briefly, both glucose and glycerol were deprotonized with 5 volumes of methanol, derivitized with 3 volumes of 1:1 acetic anhydride:pyridine, heated to 65° C. for 20 min, and 1 volume of methanol was added, then GC-MS was used in CI mode to measure glucose enrichment and EI mode to measure glycerol enrichment, with turnover calculated using the equation above. β-Hydroxybutyrate was deprotonized with 5 volumes of methanol and derivitized with 3 volumes of n-butanol 4N HCl, after which the samples were heated to 65° C. for 60 min, evaporated under N2 gas, and re-suspended in […] of trifluoroacetic acid:methylene chloride (1:7). Fatty acid turnover was measured by determining the plasma palmitate enrichment by GC-MS. Samples were prepared for measurements of palmitate enrichment by evaporating […] plasma, dissolving in […] 1:1 chloroform:methanol and derivitizing with […] boron trifluoride/methanol, then heating to 100° C. for 5 min, adding 2 mL pentane and 1 mL water, and centrifuging at low speed for 5 min. […] Alanine turnover was determined in rats infused with [2,3,3,3-^2H4]alanine by preparing samples to measure alanine enrichment by GC/MS (CI mode) using the same protocol as was employed to measure β-hydroxybutyrate enrichment.

glycogen phosphorylase = target: T2, glycogen phosphorylase (Rattus norvegicus, UniProt P09811); test: Glycogen phosphorylase inhibitor in 8, 16 and 48 hr fasted rats; format: in vivo; conditions: for reduction in rates of endogenous glucose production: 5 mg/kg IV, 2 hr
T2 construct: from tissue; host or cells: live rat, in vivo (IV dosing); liver is the tissue discussed
T2 sequence (P09811 1-850): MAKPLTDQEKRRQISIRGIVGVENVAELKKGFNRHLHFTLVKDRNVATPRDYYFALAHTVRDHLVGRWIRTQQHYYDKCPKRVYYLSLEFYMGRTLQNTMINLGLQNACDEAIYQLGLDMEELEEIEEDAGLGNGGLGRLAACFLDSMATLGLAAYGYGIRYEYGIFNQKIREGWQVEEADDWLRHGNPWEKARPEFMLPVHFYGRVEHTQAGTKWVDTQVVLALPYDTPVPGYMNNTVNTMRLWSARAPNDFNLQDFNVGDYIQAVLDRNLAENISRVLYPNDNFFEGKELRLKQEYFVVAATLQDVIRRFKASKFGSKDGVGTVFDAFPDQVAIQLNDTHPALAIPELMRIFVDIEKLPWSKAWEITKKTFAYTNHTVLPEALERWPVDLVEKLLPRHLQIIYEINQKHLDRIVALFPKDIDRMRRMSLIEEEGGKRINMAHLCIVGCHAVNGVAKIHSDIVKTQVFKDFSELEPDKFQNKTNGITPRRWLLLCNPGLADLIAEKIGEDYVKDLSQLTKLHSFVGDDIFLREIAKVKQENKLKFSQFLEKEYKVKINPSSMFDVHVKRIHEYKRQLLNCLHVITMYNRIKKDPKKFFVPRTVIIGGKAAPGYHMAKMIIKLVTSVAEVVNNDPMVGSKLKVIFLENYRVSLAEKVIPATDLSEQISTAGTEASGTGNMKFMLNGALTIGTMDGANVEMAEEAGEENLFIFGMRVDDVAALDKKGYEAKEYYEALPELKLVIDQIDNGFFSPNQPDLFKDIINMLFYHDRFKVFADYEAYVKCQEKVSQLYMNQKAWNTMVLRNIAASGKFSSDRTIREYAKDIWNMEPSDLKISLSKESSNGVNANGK
Protocol: as §1, §2

[2] = short-term fasted rats (8 and 16 hr)

In the case of `NCCOB(c1ccccc1)c1ccccc1` [2-APB, 2-aminoethoxydiphenyl borate], the “glucagon-stimulated VPC flux” value [1] is reported as “inhibited”, the glucagon-stimulated glucose production [1] is reported as “inhibited” and the “effect of glucagon to stimulate intrahepatic lipolysis” value (from here on “effect of glucagon”) [1] is reported as “abrogated”.
With `CCCCCCCCCCCCCCCCCCOCC(COP(=O)([O-])OCC[N+](C)(C)C)OC` (centres unmarked) [ET-18-OCH3] the “glucagon-stimulated VPC flux” value [1] was “inhibited”, the glucagon-stimulated glucose production [1] was “inhibited” and the “effect of glucagon” value [1] was “abrogated”.
In the case of `COc1ccc(S(=O)(=O)N(CCO)c2ccccc2CN(C)C/C=C/c2ccc(Cl)cc2)cc1` [KN-93], the glucagon-stimulated glucose production [1] is reported as “abrogated” and the “effect of glucagon” value [1] is reported as “abrogated”.
With `COc1ccc2c(c1)CC[C@@H]1[C@@H]2CC[C@]2(C)[C@@H](NCCCCCCN3C(=O)C=CC3=O)CC[C@@H]12` [U-73122] the “glucagon-stimulated VPC flux” value [1] was “inhibited”, the glucagon-stimulated glucose production [1] was “inhibited” and the “effect of glucagon” value [1] was “abrogated”.
`Cn1c(=O)c2c(ncn2C)n(C)c1=O` [caffeine] was tested, and the “glucagon-stimulated VPC flux” value [1] was “inhibited”, the glucagon-stimulated glucose production [1] was “inhibited” and the “effect of glucagon” value [1] was “abrogated”.
`CCOC(=O)[C@@]1(CCCCCCOc2ccc(Cl)cc2)CO1` [etomoxir] was tested, and the plasma corticosterone concentrations (CPT-1; 16- and 48-hr fasted rats) was “increases”, the “reductions in plasma leptin concentrations” value (CPT-1; 16- and 48-hr fasted rats) was 50% and the “hepatic acetyl-CoA content, hepatic gluconeogenesis, and plasma glucose and insulin concentrations” value (CPT-1; 16- to 48-hr fasted rats) was “suppressed”. The WAT lipolysis (CPT-1; fasted rats) was “increased”, the “hepatic acetyl-CoA content” value (CPT-1; fasted rats) was “suppression” and the “plasma epinephrine or norepinephrine concentrations” value (CPT-1; fasted rats) was “no differences”. For the same compound, the “plasma lactate and hepatic malonyl-CoA concentrations” value (CPT-1; fasted rats) was “unchanged”, the β-hydroxybutyrate turnover (CPT-1; fasted rats) was “suppression” and the plasma glucose concentrations (CPT-1; fasted rats, 8 mg/kg IP, 2 hr) was “lowered”. For the same compound, the plasma insulin concentrations (CPT-1; fasted rats, 8 mg/kg IP, 2 hr) was “lowered” and the “whole body glucose turnover” value (CPT-1; fasted rats, 8 mg/kg IP, 2 hr) was “lowered”.
In the case of `CNC(=O)Nc1ccc(OC)c(NC(=O)NC(=O)c2cc(F)c(F)cc2Cl)c1` [glycogen phosphorylase inhibitor, 1-(3-(3-(2-Chloro-4,5-difluorobenzoyl)ureido)-4-methoxyphenyl)-3-methylurea], the “plasma ACTH concentrations” value (glycogen phosphorylase; 8- and 16-hr fasted rats) is reported as “increases”, the plasma corticosterone concentrations (glycogen phosphorylase; 8- and 16-hr fasted rats) is reported as “increases” and the plasma leptin concentrations (glycogen phosphorylase; 8- and 16-hr fasted rats) is reported as “reductions”. The “reduction in rates of endogenous glucose production” value (glycogen phosphorylase; 8-hr fasted rats) was 60%, the “plasma FGF-21 concentrations” value (glycogen phosphorylase; 8 and 16-hr fasted rats) was “increased” and the plasma glucose concentrations (glycogen phosphorylase; 8 and 16 hr fasted rats) was “lowered”. The plasma insulin concentrations (glycogen phosphorylase; 8 and 16 hr fasted rats) was “lowered”, the plasma lactate concentrations (glycogen phosphorylase; 8 and 16 hr fasted rats) was “lowered” and the whole-body glucose turnover (glycogen phosphorylase; 8 and 16 hr fasted rats) was “lowered”. The “reduction in rates of endogenous glucose production” value (glycogen phosphorylase; 16-hr fasted rats) was 30%, the “plasma glucose, lactate, and insulin concentrations and whole-body glucose turnover” value (glycogen phosphorylase; 48-hr fasted rats) was “not in the 48-hr fasted rats” and the “rates of endogenous glucose production” value (glycogen phosphorylase; 48-hr fasted rats) was “no difference”. For the same compound, the “plasma glucagon and catecholamine concentrations” value (glycogen phosphorylase; fasted rats) was “not altered”, the “rates of WAT lipolysis” value (glycogen phosphorylase; [2]) was “increased” and the “rates of alanine turnover” value (glycogen phosphorylase; [2]) was “decreased”.
With `C/C=C(/C)C(=O)O[C@H]1C(C)=C2[C@H]([C@@H]1OC(=O)CCCCCCC)[C@@](C)(OC(C)=O)C[C@H](OC(=O)CCC)[C@@]1(O)[C@H]2OC(=O)[C@@]1(C)O` [thapsigargin] the “glucagon-stimulated VPC flux” value [1] was “inhibited”, the glucagon-stimulated glucose production [1] was “inhibited” and the “effect of glucagon” value [1] was “abrogated”.
For insulin, the “glucose production and VPC flux” value ([1]; isolated hepatocytes with insulin, unaltered in InsP3R-I KO) was “suppress”.
